The values that follow come from patent publication US8263642B2, “Antimicrobial compounds and methods of use thereof” (Vanderbilt University, priority 2008, dated 2012).

Some results are limits rather than exact numbers.

Data set [1] concerns HssRS-dependent hrtAB expression. Briefly: Luminescence-based assay to monitor HssRS-dependent hrtAB expression (phrtABlux reporter), Newman. Type of data set: cell-based, Staphylococcus aureus. Particulars: for activation at 0.0825 µM: Staphylococcus aureus, NEWMAN, read-out: % Lumi, luminescence induced by the compound compared to the heme control (82.5 nM) in the same plate; for activation at 0.0825 µM / Luminescence: Newman; for Luminescence: raw luminescence value obtained in a luminometer. A digest of the protocol: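 S. aureus Newman wild type or ΔhssR carrying a hrtAB promoter–luxCDABE reporter (phrtABlux), grown in TSB with 10 μg/ml chloramphenicol at 37 °C. Light output read against 82.5 nM heme as the in-plate positive control. Activity given as % of heme-induced luminescence.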

Data set [2] has as its system hrtAB-driven expression of the xylE reporter gene. Briefly: XylE reporter assay (hrtAB promoter-xylE), Newman. The note with it: for XylE (0.05): level of XylE induction at 0.05 uM of the compound; for XylE (0.5): level of XylE induction at 0.5 uM of the compound; for XylE (5.0): level of XylE induction at 5.0 uM of the compound; for XylE (50.0): level of XylE induction at 50.0 uM of the compound. The data set is classed as cell-based, Staphylococcus aureus. Put shortly:
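S. aureus carrying hrtAB promoter-xylE fusion in pOS1 grown O/N at 37° C in TSB with chloramphenicol, lysed with lysostaphin. Lysate XylE activity read as 2-hydroxymuconic semialdehyde formation from 0.2 mM pyrocatechol (A375, every minute for 30 minutes), normalised to BCA protein; unit = 1 nmol/min/mg at 30° C.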

Data set [3] concerns response regulator HssR. The data set is described as follows: HssR dependence of XylE inducing activity, Newman. Type of data set: cell-based, Staphylococcus aureus. The note with it: whether XylE inducing activity requires HssR. As for the experimental part:
With reference to Table 1, “Luminescence” refers to the raw luminescence value obtained in a luminomter. “Control (82.5 nm)” refers to the luminescence value obtained from heme at 82.5 nM as a positive control in the same plate as the experimental. “% lum” is the percentage of luminescence induced by the compound as compared to the heme control in the same plate. […] All of these assays are described in the application. […] “N/T” indicates the test was not performed. […]
S. aureus strains harboring the appropriate reporter construct were inoculated into 500 μl of TSB containing 10 μg/ml chloramphenicol in 1.5 ml tubes. Cultures were grown O/N at 37° C. with shaking. Bacteria were pelleted by centrifugation and spent medium was aspirated. The pellet was washed once with 500 μl of 20 mM potassium phosphate, pH 7.6, and resuspended in 150 μl of 100 mM potassium phosphate buffer, pH 8.0, 10% (v/v) acetone, 25 μg/ml lysostaphin. After 20 minute incubation at 37° C. and 5 minute incubation on ice, samples were centrifuged at 20,000 g for 30 minutes at 4° C. 1-10 μl of supernatant was added to a 96-well plate and 200 μl of 100 mM potassium phosphate, pH 8.0, 0.2 mM pyrocatechol was added to each well. Formation of 2-hydroxymuconic semialdehyde was tracked by measuring the absorbance at 375 nm every minute for 30 minutes on a Varian MP 50 microplate reader. Protein concentration in samples was determined by BCA (Pierce). One unit of specific activity of XylE in a sample is defined as the formation of 1 nmol of 2-hydroxymuconic semialdehyde per minute per milligram of cellular protein at 30° C. (Chien, Y., Manna, A. C., Projan, S. J., and Cheung, A. L. 1999, “SarA, a global regulator of virulence determinants in Staphylococcus aureus, binds to a conserved motif essential for sar-dependent gene regulation. J. Biol. Chem. 274, 37169-37176).

Data set [4] concerns response regulator HssR. The data set is described as follows: HssR dependence, Stern test. Type of data set: cell-based. The method, then: (§1) Methods for obtaining the data shown in Tables 1 and 2 are described herein.
(§2) With reference to Table 1, “Luminescence” refers to the raw luminescence value obtained in a luminomter. “Control (82.5 nm)” refers to the luminescence value obtained from heme at 82.5 nM as a positive control in the same plate as the experimental. “% lum” is the percentage of luminescence induced by the compound as compared to the heme control in the same plate. […] All of these assays are described in the application. […] “N/T” indicates the test was not performed.

Data set [5] deals with Stern. The data set is described as follows: Heme adaptation, Stern test. The data set is classed as cell-based. The method, then: as §1, §2
Data set [6] in a line: Solubility of heme in solution. The data set is classed as physicochemical. Particulars: concentrations above this are insoluble.

With `CCOC(=O)c1c(NC(=O)c2ccccc2)sc(C(C)=O)c1-c1ccccc1`, in data set [1], the activation at 0.0825 µM was 109% and the Luminescence is recorded as 312. Also, in data set [2], the “XylE (0.05)” value came out at 0.03, the “XylE (0.5)” value is reported as 1, the “XylE (5.0)” value turned out to be 0.3 and the “XylE (50.0)” value is reported as 0.08. The “HssR Dep” value in data set [3] is reported as “−”.

As to `CC(NC(=O)C1(c2ccccc2)CCCC1)C1COc2ccccc2O1` (stereo not shown) [drawing 132], the “HssR Dep” value in data set [4] is listed as “+”. Besides, in data set [5], the “Heme Adapt” value is recorded as “+”.

As to `COC(NC(=O)Nc1nc2ccccc2s1)(C(F)(F)F)C(F)(F)F`, in data set [1], the activation at 0.0825 µM stood at 280% and the Luminescence amounted to 1747. Besides, in data set [2], the “XylE (0.5)” value stood at 4, the “XylE (5.0)” value was found to be 0.04 and the “XylE (50.0)” value is given as 7. Further, in data set [3], the “HssR Dep” value is listed as “−”.

Regarding `C=CC1=C(C)c2cc3[n-]c(cc4[n-]c(cc5nc(cc1n2)C(C)=C5C=C)c(C)c4CCC(=O)O)c(CCC(=O)O)c3C.[Fe+2]` [heme, reference compound], the “light production on solid medium” value in data set [1] (S. aureus containing phrtABlux, solid medium without or with 4 μM heme) is “generated light exclusively upon heme exposure”. The “luminescence in liquid media” value in data set [1] (S. aureus wildtype containing phrtABlux, liquid media with or without heme) was “robust luminescence”. The molecule further yielded an increase in luminescence in data set [1] (exposure of S. aureus to 3 μM heme, preliminary results) of 100 fold. Moreover, the “increase in luminescence over negative control strains” value in data set [1] (heme-exposed wildtype harboring phrtABlux vs wildtype plux and ΔhssR phrtABlux, preliminary results) was found to be 100 fold. Also, the “soluble concentration in solution” value in data set [6] is ≤ 30 µM.

In the case of `Cc1ccc(-c2nnc(SCC(=O)NC3CCCC3)nc2-c2ccc(C)cc2)cc1`, in data set [1], the activation at 0.0825 µM was found to be 855% and the Luminescence is listed as 1658. Also, in data set [2], the “XylE (0.5)” value came to 1, the “XylE (5.0)” value worked out at 0.5 and the “XylE (50.0)” value is on record as 0.04. In data set [3], the “HssR Dep” value is “−”.

In the case of `Cc1nc(Nc2ccc(Oc3ccccc3)cc2)c2c(C)c(C)sc2n1`, the Luminescence in data set [1] amounted to 1627. In addition, in data set [2], the “XylE (0.5)” value is 0.6, the “XylE (5.0)” value is given as 0.09 and the “XylE (50.0)” value is recorded as 0. Besides, the “HssR Dep” value in data set [3] is “−”.

In the case of `COc1ccc(CCNC(=O)C(=O)Nc2cccc(Cl)c2)cc1OC`, in data set [1], the activation at 0.0825 µM was found to be 355% and the Luminescence came out at 2830. In addition, in data set [2], the “XylE (0.05)” value came out at 1, the “XylE (0.5)” value is reported as 0.5, the “XylE (5.0)” value is on record as 0.8 and the “XylE (50.0)” value is on record as 5. In addition, the “HssR Dep” value in data set [3] is “−”.

`CC1=NN(c2ccccc2)C(=O)/C1=N\Nc1ccccc1O`: in data set [1], the activation at 0.0825 µM was determined as 60.3% and the Luminescence was 1848. In addition, in data set [2], the “XylE (0.05)” value amounted to 0.07, the “XylE (0.5)” value was 0.05, the “XylE (5.0)” value amounted to 0.2 and the “XylE (50.0)” value came to 1. Also, in data set [3], the “HssR Dep” value was “−”.

`COc1ccccc1NC1=C/C(=N\S(=O)(=O)c2ccc(Br)cc2)c2ccccc2C1=O` [drawing 136]: the “HssR Dep” value in data set [4] was “+”. Besides, the “Heme Adapt” value in data set [5] is on record as “+”.

For the molecule `CC(C)CSc1nnc(-c2ccccc2)c(-c2ccccc2)n1`, in data set [1], the activation at 0.0825 µM was 383% and the Luminescence is listed as 1706. Also, in data set [2], the “XylE (0.5)” value was 0.04, the “XylE (5.0)” value worked out at 0.07 and the “XylE (50.0)” value came to 1. For the same molecule, the “HssR Dep” value in data set [3] is “+”.

As for `O=C(N/N=C/c1ccc(-c2ccc(Br)cc2)o1)C1COc2ccccc2O1` (stereo not shown) [drawing 133], the “HssR Dep” value in data set [4] is listed as “+”. Besides, the “Heme Adapt” value in data set [5] is reported as “+”.

As for `Cc1ccc(CSCc2ccc(C(=O)NCc3ccc(F)cc3)o2)cc1`, in data set [1], the activation at 0.0825 µM is 198% and the Luminescence is 1653. For the same molecule, in data set [2], the “XylE (0.5)” value worked out at 0, the “XylE (5.0)” value is recorded as 3 and the “XylE (50.0)” value is given as 5. In addition, the “HssR Dep” value in data set [3] is recorded as “+”.

On to `O=c1c2ccccc2nc(/C=C\c2ccccc2Cl)n1-c1ccccc1O`, for which, in data set [1], the Luminescence was 6843. In addition, in data set [2], the “XylE (0.05)” value amounted to 0.08, the “XylE (0.5)” value is 1, the “XylE (5.0)” value came out at 50 and the “XylE (50.0)” value is reported as 1. In data set [3], the “HssR Dep” value is recorded as “+”.

The molecule `O=C(O)C1CSC(c2cccnc2)=N1` (stereo not shown) showed a Luminescence in data set [1] of 2360. In addition, in data set [2], the “XylE (0.05)” value amounted to 1, the “XylE (0.5)” value worked out at 1, the “XylE (5.0)” value was determined as 1 and the “XylE (50.0)” value is 3. In addition, the “HssR Dep” value in data set [3] is “−”.

In the case of `O=C(N/N=C/c1ccc(-c2cccc(C(F)(F)F)c2)o1)C1COc2ccccc2O1` (stereo not shown) [drawing 134], the “HssR Dep” value in data set [4] is “−”. The “Heme Adapt” value in data set [5] was “−”.

In the case of `CCCN1C(=O)/C(=C2/C(=O)N(CC(=O)Nc3ccc(Cl)cc3)c3ccccc32)SC1=S` [drawing 28], in data set [1], the Luminescence is listed as 1600. Further, in data set [2], the “XylE (0.05)” value is 1, the “XylE (0.5)” value was found to be 0.06, the “XylE (5.0)” value turned out to be 0.07 and the “XylE (50.0)” value amounted to 0.02. In data set [3], the “HssR Dep” value is “−”.

Regarding `Cc1ccc(NS(=O)(=O)c2ccc3c(c2)Cc2cc(S(=O)(=O)Nc4ccc(C)cc4)ccc2-3)cc1` [drawing 135], in data set [4], the “HssR Dep” value is reported as “+”. Further, the “Heme Adapt” value in data set [5] was “+”.

As to `O=C(Nc1ccc(NC(=O)c2cccs2)c(Cl)c1)c1cccs1`, in data set [1], the activation at 0.0825 µM was determined as 111% and the Luminescence is 406. In data set [2], the “XylE (0.05)” value came to 0.05, the “XylE (0.5)” value is on record as 0.05, the “XylE (5.0)” value is reported as 0.9 and the “XylE (50.0)” value came to 0.06. Further, in data set [3], the “HssR Dep” value is on record as “−”.

With `Oc1c(-c2cc(-c3ccco3)[nH]n2)ccc2ccccc12` [drawing 131], in data set [4], the “HssR Dep” value is recorded as “−”. For the same molecule, the “Heme Adapt” value in data set [5] is recorded as “−”.

Take `c1ccc(-c2ccc(CSc3nc4ccccc4[nH]3)cc2)cc1`: the Luminescence in data set [1] was determined as 1822. In data set [2], the “XylE (0.5)” value came out at 0.03, the “XylE (5.0)” value came to 0.08 and the “XylE (50.0)” value was 11. For the same molecule, the “HssR Dep” value in data set [3] is listed as “+”.

As to `Brc1ccc(-c2nc(NCc3ccccc3)c3ccccc3n2)cc1`, the Luminescence in data set [1] is given as 4302. Also, in data set [2], the “XylE (0.05)” value is listed as 1, the “XylE (0.5)” value is listed as 1, the “XylE (5.0)” value is given as 0.5 and the “XylE (50.0)” value is on record as 0.2. The “HssR Dep” value in data set [3] is reported as “−”.
